Patent US20260158102A1, “CYCLIC PEPTIDE DERIVATIVE COMPOSITION FOR TREATING OR PREVENTING NEUROPATHIC PAIN AND/OR INFLAMMATORY PAIN” (DKS Co. Ltd., priority 2022, published 2026)

Test: Observation of general condition in rat STZ-induced diabetes model
Type: in vivo
Details: number of animals, 10 per group
Description: Compound 9 (50 mg/mL) was diluted with water for injection to obtain a 1 mg/mL administration specimen. For the specimens to be administered at 0.1 mg/mL and 0.01 mg/mL, the specimen to be administered at 1 mg/mL was diluted stepwise with water for injection. Each administration specimen was divided into PP disposable tubes every day and stored in a storehouse (freezer: MDF-MU339H-PJ, PHC Corporation) under the condition of freezing (−30° C. to −20° C., measured value: −26.4 to −24.5° C.). Preparation was performed on the day before the start of administration.
Water for injection was added to and dissolved in Pregabalin taken out from the capsule to obtain 2 mg/mL. It was prepared before use.
• Animal species: rat (SPF) • Strain: Crl: CD (SD) • Date of animal acquisition, gender, age in weeks, number of animals acquired, and weight range after 1 day of acquisition • First and second courses: Apr. 6, 2022, male, 7 weeks old, 35 animals, 217 to 237 g • Third and fourth courses: Apr. 13, 2022, male, 7 weeks old, 35 animals, 216 to 235 g • Source: […].
• Dose volume: calculated at 2 mL/kg based on the body weight on the day of administration. • Number of times of administration: once • Day of administration: 7 days before the day of starting administration of the test substance.
• Dose volume: calculated at 1 mL/kg based on the body weight on the day of administration. • Number of times of administration: 9 times • Interval of administration: once every 3 days (evaluation was performed on the day after administration) • Day of starting administration: day 8 of STZ administration (day of STZ administration is counted as day 1).
• Dose volume: calculated at 10 mL/kg based on the body weight on the day of administration. • Number of times of administration: Administration was performed once on the day of evaluation of neuropathic pain, twice in total, and on the other days of administration, a vehicle for a control substance (water for injection) was orally administered.
• Observation of general condition • Observation was performed once a day.

Measured: general condition

CC[C@@]1(C)Oc2cc(ccc2O)C[C@H](NC)C(=O)N[C@@H](C(C)C)C(=O)N[C@@H]1C(=O)N[C@@H](CC(=O)O)C(=O)O [Compound 9]
10: 0.01 mg/kg iv, day 1 of STZ administration | 0.01 mg/kg iv, day 2 of STZ administration | 0.01 mg/kg iv, day 3 of STZ administration | 0.01 mg/kg iv, day 4 of STZ administration | 0.01 mg/kg iv, day 5 of STZ administration | 0.01 mg/kg iv, day 6 of STZ administration | 0.01 mg/kg iv, day 7 of STZ administration | 0.01 mg/kg iv, day 8 of STZ administration | 0.01 mg/kg iv, day 9 of STZ administration | 0.01 mg/kg iv, day 10 of STZ administration | 0.01 mg/kg iv, day 11 of STZ administration | 0.01 mg/kg iv, day 12 of STZ administration | 0.01 mg/kg iv, day 13 of STZ administration | 0.01 mg/kg iv, day 14 of STZ administration | 0.01 mg/kg iv, day 15 of STZ administration | 0.01 mg/kg iv, day 16 of STZ administration | 0.01 mg/kg iv, day 17 of STZ administration | 0.01 mg/kg iv, day 18 of STZ administration | 0.01 mg/kg iv, day 19 of STZ administration | 0.01 mg/kg iv, day 20 of STZ administration | 0.01 mg/kg iv, day 21 of STZ administration | 0.01 mg/kg iv, day 22 of STZ administration | 0.01 mg/kg iv, day 23 of STZ administration | 0.01 mg/kg iv, day 24 of STZ administration | 0.01 mg/kg iv, day 25 of STZ administration | 0.01 mg/kg iv, day 26 of STZ administration | 0.01 mg/kg iv, day 27 of STZ administration | 0.01 mg/kg iv, day 28 of STZ administration | 0.01 mg/kg iv, day 29 of STZ administration | 0.01 mg/kg iv, day 30 of STZ administration | 0.01 mg/kg iv, day 31 of STZ administration | 0.01 mg/kg iv, day 32 of STZ administration | 0.01 mg/kg iv, day 33 of STZ administration | 0.01 mg/kg iv, day 34 of STZ administration | 0.01 mg/kg iv, day 35 of STZ administration | 0.1 mg/kg iv, day 1 of STZ administration | 0.1 mg/kg iv, day 2 of STZ administration | 0.1 mg/kg iv, day 3 of STZ administration | 0.1 mg/kg iv, day 4 of STZ administration | 0.1 mg/kg iv, day 5 of STZ administration | 0.1 mg/kg iv, day 6 of STZ administration | 0.1 mg/kg iv, day 7 of STZ administration | 0.1 mg/kg iv, day 8 of STZ administration | 0.1 mg/kg iv, day 9 of STZ administration | 0.1 mg/kg iv, day 10 of STZ administration | 0.1 mg/kg iv, day 11 of STZ administration | 0.1 mg/kg iv, day 12 of STZ administration | 0.1 mg/kg iv, day 13 of STZ administration | 0.1 mg/kg iv, day 14 of STZ administration | 0.1 mg/kg iv, day 15 of STZ administration | 0.1 mg/kg iv, day 16 of STZ administration | 0.1 mg/kg iv, day 17 of STZ administration | 0.1 mg/kg iv, day 18 of STZ administration | 0.1 mg/kg iv, day 19 of STZ administration | 0.1 mg/kg iv, day 20 of STZ administration | 0.1 mg/kg iv, day 21 of STZ administration | 0.1 mg/kg iv, day 22 of STZ administration | 0.1 mg/kg iv, day 23 of STZ administration | 0.1 mg/kg iv, day 24 of STZ administration | 0.1 mg/kg iv, day 25 of STZ administration | 0.1 mg/kg iv, day 26 of STZ administration | 0.1 mg/kg iv, day 27 of STZ administration | 0.1 mg/kg iv, day 28 of STZ administration | 0.1 mg/kg iv, day 29 of STZ administration | 0.1 mg/kg iv, day 30 of STZ administration | 0.1 mg/kg iv, day 31 of STZ administration | 0.1 mg/kg iv, day 32 of STZ administration | 0.1 mg/kg iv, day 33 of STZ administration | 0.1 mg/kg iv, day 34 of STZ administration | 0.1 mg/kg iv, day 35 of STZ administration | 1 mg/kg iv, day 1 of STZ administration | 1 mg/kg iv, day 2 of STZ administration | 1 mg/kg iv, day 3 of STZ administration | 1 mg/kg iv, day 4 of STZ administration | 1 mg/kg iv, day 5 of STZ administration | 1 mg/kg iv, day 6 of STZ administration | 1 mg/kg iv, day 7 of STZ administration | 1 mg/kg iv, day 8 of STZ administration | 1 mg/kg iv, day 9 of STZ administration | 1 mg/kg iv, day 10 of STZ administration | 1 mg/kg iv, day 11 of STZ administration | 1 mg/kg iv, day 12 of STZ administration | 1 mg/kg iv, day 13 of STZ administration | 1 mg/kg iv, day 14 of STZ administration | 1 mg/kg iv, day 15 of STZ administration | 1 mg/kg iv, day 16 of STZ administration | 1 mg/kg iv, day 17 of STZ administration | 1 mg/kg iv, day 18 of STZ administration | 1 mg/kg iv, day 19 of STZ administration | 1 mg/kg iv, day 20 of STZ administration | 1 mg/kg iv, day 21 of STZ administration | 1 mg/kg iv, day 22 of STZ administration | 1 mg/kg iv, day 28 of STZ administration | 1 mg/kg iv, day 29 of STZ administration | 1 mg/kg iv, day 30 of STZ administration | 1 mg/kg iv, day 31 of STZ administration | 1 mg/kg iv, day 32 of STZ administration | 1 mg/kg iv, day 33 of STZ administration | 1 mg/kg iv, day 34 of STZ administration | 1 mg/kg iv, day 35 of STZ administration
